Test results from US20160102058A1, “FLUORO-PERHEXILINE COMPOUNDS AND THEIR THERAPEUTIC USE” (THE UNIVERSITY COURT OF THE UNIVERSITY OF ABERDEEN, priority 2013, published 2016).

Legend:
[1] = cited from earlier work
[2] = Rat liver microsomal (RLM) stability assay; type: in vitro ADME; conditions: both sexes, pH 7.4, rat liver microsomes, 3 μM test compound
Procedure: (§1) The metabolic stability of fluoroperhexiline derivatives was measured by determination of the rate of compound disappearance when incubated in the presence of both human and rat liver microsomes. Liver microsomes are prepared from the endoplasmic reticulum of hepatocytes and are the primary source of the most important enzymes (cytochrome P450) involved in drug metabolism. Study of drug stability in the presence of liver microsomes is accepted as a valuable model permitting rapid prediction of in vivo drug stability.
(§2) Human and rat liver microsomes were obtained from a commercial source. Test compounds (3 μM) were incubated with pooled liver microsomes (male and female). Samples were incubated for a 45 minute period and removed at 5 time points and test compounds were analysed by LC-MS/MS.
(§3) Microsomes (final protein concentration 0.5 mg/mL), 0.1 M phosphate buffer pH 7.4, and test compound (final concentration 3 μM; diluted from 10 mM stock solution to give a final DMSO concentration of 0.25%) were incubated at 37° C. prior to the addition of NADPH (final concentration 1 mM) to initiate the reaction. The final incubation volume was 25 μL. A control incubation was included for each compound tested, where 0.1 M phosphate buffer pH 7.4 was added instead of NADPH. The control compounds testosterone and 7-hydroxycoumarin were included in each experiment and all incubations were performed singularly for each compound.
(§4) Each compound was incubated for 0, 5, 15, 30, and 45 minutes. The control (minus NADPH) was incubated for 45 minutes only. The reactions were stopped by the addition of 50 μL methanol containing internal standard at the appropriate time points. The incubation plates were centrifuged at 2500 rpm for 20 minutes at 4° C. to precipitate the protein.
(§5) Following protein precipitation, the sample supernatants were combined in cassettes of up to 4 compounds and analysed using standard LC-MS/MS conditions.
(§6) From a plot of the natural logarithm of the peak area ratio (i.e., the ratio of compound peak area:internal standard peak area) against time, the gradient of the line was determined. Subsequently, half-life and intrinsic clearance were calculated using the equations below:
(§7) Eliminated Rate Constant (k)=(−Gradient).
(§8) Half-Life (t1/2) (min)=0.063/k.
(§9) Intrinsic Clearance (CLint) […]=(V×0.693)/t1/2. • wherein V=Incubation Volume (μL/mg microsomal protein).

[3] = Human liver microsomal (HLM) stability assay; type: in vitro ADME
Procedure: as §1, §2, §3, §4, §5, §6, §7, §8, §9

[4] = target: T1, CYP2D6 (Homo sapiens, UniProt P10635); assay: Cytochrome P450 2D6 reaction phenotyping (Bactosomes); type: in vitro ADME
T1 construct: purchased Cypex Ltd; host or cells: bacterial membranes (Bactosomes)
Procedure: The stability of fluoroperhexiline derivatives towards CYP2D6-mediated metabolism was measured by determination of the rate of compound disappearance when incubated in the presence CYP2D6 recombinant isoform expression systems (Bactosomes™). The percentage of parent compound remaining at each time point (following correction for any loss in the incubations with the control bactosomes) is calculated. cDNA expressed human CYP450 enzyme preparations co-expressed with human NADPH cytochrome P450 reductase (Bactosomes™) are supplied by Cypex Ltd. Bactosomes™ are stored at −80° C. prior to use. […] Incubations are also performed using control bactosomes (no P450 enzymes present) to reveal any non-enzymatic degradation. The final incubation volume is 25 μL. A compound known to be metabolised specifically by CYP2D6 isoform is used as a control compound. Each compound is incubated singly for 0, 5, 15, 30 and 45 min with each isoform. The reactions are stopped by the addition of 50 μL methanol containing internal standard at the appropriate time points. The incubation plates are centrifuged at 2500 rpm for 20 min at 4° C. to precipitate the protein. Following protein precipitation, the sample supernatants are combined in cassettes of up to four compounds and analysed using Cyprotex generic LC-MS/MS conditions. The natural logarithm of the peak area ratio (which has been corrected for any loss in the incubations with the control bactosomes) is plotted against time and the gradient of the line determined. Elimination Rate Constant (k)=(−Gradient).

T1 sequence (P10635 whole entry): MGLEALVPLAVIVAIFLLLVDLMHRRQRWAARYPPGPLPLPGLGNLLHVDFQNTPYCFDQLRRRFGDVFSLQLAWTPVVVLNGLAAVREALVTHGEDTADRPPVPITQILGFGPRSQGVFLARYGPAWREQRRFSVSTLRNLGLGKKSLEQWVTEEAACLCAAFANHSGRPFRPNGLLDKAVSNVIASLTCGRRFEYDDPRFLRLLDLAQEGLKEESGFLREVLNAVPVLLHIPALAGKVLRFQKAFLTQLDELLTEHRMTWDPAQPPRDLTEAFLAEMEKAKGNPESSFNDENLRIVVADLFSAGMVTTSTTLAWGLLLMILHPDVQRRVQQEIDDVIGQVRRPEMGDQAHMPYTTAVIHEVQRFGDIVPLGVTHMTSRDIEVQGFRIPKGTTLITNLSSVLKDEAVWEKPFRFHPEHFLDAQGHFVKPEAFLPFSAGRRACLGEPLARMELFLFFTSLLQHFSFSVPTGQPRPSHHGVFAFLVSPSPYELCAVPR

Which “ratio of systemic exposure of (+)- to (−)-perhexiline, extensive metabolisers” value ([1]; EM) does the source give for `C1CCC(C(CC2CCCCN2)C2CCCCC2)CC1` (single isomer, unassigned; (+)) [(+)-perhexiline] here?
Its value is 1.5.

And the “ratio of systemic exposure of (+)- to (−)-perhexiline, poor metabolisers” value ([1]; PM)?
The value was 2.3.

And the “plasma AUC, (+)-perhexiline relative to (−)-perhexiline” value ([1]; plasma)?
The value was 2.5 fold.

With `FC1(F)CCC(C(CC2CCCCN2)C2CCC(F)(F)CC2)CC1` (centres unmarked) [FPER-002, 2-(2,2-Bis(4,4-Difluorocyclohexyl)ethyl)piperidine] as the compound, how does the microsomal CLint at 3 μM ([2]; read-out: CLint (μL/min/mg protein) RLM) read?
The microsomal CLint at 3 μM was 0.8 µL/min/mg.

And the half-life at 3 μM ([2]; read-out: T½ (min) RLM)?
The half-life at 3 μM was 1650 min.

And the microsomal CLint at 3 μM ([3]; both sexes, pH 7.4, human liver microsomes, 3 μM test compound, read-out: CLint (μL/min/mg protein) HLM)?
The microsomal CLint at 3 μM was 0.3 µL/min/mg.

What about the half-life at 3 μM ([3]; both sexes, pH 7.4, human liver microsomes, 3 μM test compound, read-out: T½ (min) HLM) of the same compound?
Its half-life at 3 μM is 4210 min.

And the “metabolic stability compared with perhexiline (in words)” value ([3]; human and rat liver microsomes, versus perhexiline)?
Its value is “substantial increase in metabolic stability”.

What about the half-life at 5 μM ([4]; human, pH 7.4, recombinant CYP2D6 Bactosomes, 5 μM test compound, read-out: T½) of the same compound?
The half-life at 5 μM was 2.52 h.

What about the “stability towards CYP2D6 compared with perhexiline (in words)” value ([4]; versus perhexiline) of the same compound?
The value was “substantial increase in stability towards CYP2D6”.

With `O[C@H]1CC[C@@H](C(CC2CCCCN2)C2CCCCC2)CC1` (relative stereo) [cis-OH-perhexiline, cis-4-[1-(cyclohexyl)-2-(2-piperidinyl)ethyl]cyclohexanol] as the compound, how does the “plasma AUC of cis-OH-perhexiline after (−)-perhexiline compared with (+)-perhexiline” value ([1]; plasma) read?
Its value is 28 fold.
